The subject of assay [1] is p27 phosphorylation at S83 and T187 in cardiomyocytes. In words: p27 phosphorylation at S83 and T187 in Ang II-treated cardiomyocytes (Western blot). It counts as cell-based, rat. Conditions: Ang II 4 h; lentiviruses 72 h; DMAT 20 μM pre-incubated 30 min; TAT-conjugated CK2-alpha-prime 2.5 μg/ml 1 h. How it is done:
FIG. 2 is a series of graphs and blots showing Ang II triggers CK2-alpha-prime-dependent phosphorylation of p27 on S83 and T187 in cardiomyocytes. (A) p27 is a substrate of CK2-alpha-prime. […] In vitro kinase assays employing recombinant wt.p27 (1 μg) or phosphorylation site mutants of p27 as substrates were incubated with recombinant CK2-alpha-prime/beta (200 ng). Aliquots of the reaction mixtures were resolved on SDS-PAGE, electrotransferred to nitrocellulose membranes, and the amount of incorporated radioactive [^32P}-label into p27 was quantified with a PhosphorImager and ImageJ software. Individual membranes were probed with anti-CK2-alpha-prime, anti-p27 (input), or phosphorylation site specific antibodies to p27. […] Samples were resolved on SDS-PAGE, transferred to nitrocellulose-membranes, and the amount of incorporated radioactive label into histones was quantified with a PhosphorImager and ImageJ. The input amount of each CK2-alpha-prime and p27 protein used in the kinase reaction mixtures was monitored by immunoblot analysis employing anti-His. […] Biochemically fractionated extracts corresponding to 4×10^5 cells per lane were analyzed by immunoblotting employing antibodies as indicated on the left. […]
For orientation: In western blotting, separated proteins are transferred to a membrane and probed.

Assay [2] relates to p27 degradation in cardiomyocytes. As to the kind of experiment: Ang II-triggered p27 degradation / p27 half-life in cardiomyocytes. Type of assay: cell-based, rat. Conditions: for Ang II-triggered decrease in p27 protein levels / p27 destabilization: cardiomyocytes + Ang II, lactacystin 10 μM 30 min pre-treatment, DMAT 30 minutes prior, lentivirus 72 h; for p27 degradation: proteasome inhibitors, conditions not given. The procedure:
FIG. 3 is a series of graphs, blots and cell stainings showing essential function of CK2-alpha-prime-mediated p27 degradation for cardiomyocyte hypertrophy. […] Cells were transduced with TAT-conjugated wt.p27 (2.5 μg/ml), phosphorylation resistant p27deltaPi, or phosphomimicking mutant p27.S83D/T187D for 1 h before Ang II addition for 4 h. Isotypic anti-CK2-alpha-prime immunocomplex kinase assays were performed employing histone H1 substrate. Input levels of transduced TAT-fusion proteins were determined prior to Ang II addition by immunoblotting of total cell extracts. Mean±s.e.m., n=3. *P<0.01 vs unstimulated cells. **P<0.01 vs Ang II. #P<0.01. endog, endogenous. (B) Pharmacological inhibition of the 26S-proteasome abrogates Ang II-triggered p27 degradation. […] Alternatively, lactacystin-treated cardiomyocytes were transduced with TAT-conjugated CK2-alpha-prime or p27deltaPi (2.5 μg/ml) for 1 h prior to Ang II addition. Anti-CK2-alpha-prime immunocomplex kinase assays were performed employing histone H1 as substrate. Western blots of total cell extracts (50 μg/lane) were probed with antibodies as indicated on the left. (C) Inhibition of CK2-alpha-prime prevents Ang II-induced degradation of p27. […] Cells were then chased with excess cold methionine in the presence of Ang II and cycloheximide (100 μg/ml) to block protein synthesis for the indicated timepoints. Alternatively, cells were incubated with DMAT for 30 minutes prior to Ang II stimulation. p27 was immunoprecipitated employing anti-p27 covalently linked to protein A-agarose. Aliquots of total cell extracts were resolved on SDS-PAGE, transferred to nitrocellulose-membranes, autoradiographed (right panel), and quantified with ImageJ software (left panel). (B, C) One typical result of two independent experiments is shown. (D) Subcellular localization of p27 and S83 phosphorylated p27 in Ang II-stimulated cardiomyocytes. Cells were transduced with lentiviruses encoding siCK2-alpha-prime or siControl for 72 h prior to Ang II treatment for the indicated timepoints. […] De novo protein synthesis was determined by in vivo labeling of cardiomyocytes with [^35S]methionine (right panel). Cell size was determined by indirect immunofluorescence microscopy employing anti-tropomyosin staining and ImageJ. Expression levels of endogenous CK2-alpha-prime and p27 were determined by immunoblotting of total cell extracts employing specific antibodies as indicated. Ectopic SR.CK2-alpha-prime and SR.p27 were detected using anti-His. […]
For metabolic labeling, cardiomyocytes were pulsed-labeled with 100 μCi/ml [^35S]methionine/cysteine (1000 Ci/mmol; EasyTag, NEN) for 2 h in methionine/cysteine-deficient medium (DME, ICN). […] The amount of incorporated radioactive label was determined with ImageJ software. […]

Another assay has as its system WT mice. As to the kind of experiment: Reversal of established Ang II-dependent cardiac hypertrophy (16 days infusion, injections from day 8). Conditions: daily i.p. injections 20 mg/kg initiated at day 8. It counts as in vivo. An excerpt: FIG. 10 is the experimental treatment protocol. To examine the therapeutic effect of p27 on established cardiac hypertrophy, p27 injections were initiated at 8 days after Ang II-infusion.
To examine the effect of transduced p27 on established cardiac hypertrophy, mice were chronically infused with Ang II for 16 days and intraperitoneally injected recombinant TAT-conjugated p27ΔPi and beta-galactosidase (β-Gal) proteins starting from day 8. After 16 days of Ang II-infusion, the heart/body weight ratio were increased by 45% compared to saline-infused controls (FIG. 11B; group 7 vs. group 6). […] Transduced p27ΔPi regressed the increase in heart size by 47% as compared to β-Gal control injections (group 3 vs group 4). In Ang II-infused mice treated with p27ΔPi values of left ventricular posterior wall and interventricular septum thickness, LVEDD, LVESD, FS and EF were not significant different compared to saline-infused mice. Thus, p27 can reverse established compensated cardiac hypertrophy without exerting any deleterious effect on cardiac function.
Spontaneously beating cardiomyocytes from heart ventricles of neonatal rats were cultured and subjected to treatment with angiotensin II (Ang II). DMAT (2-dimethylamino-4,5,6,7-tetrabromo-1H-benzimidazol), DMSO, lactacystin and LLM were obtained from Calbiochem. Ang II was purchased from Sigma. Animal usage was in accordance with approved institutional animal care guidelines. Age-matched male WI C57BL/6 and p27^−/− mice were used in this study. For results shown in FIGS. 1 to 9: Ang II was chronically infused subcutaneously by osmotic pumps (model 2000, Alzet) at a dose of 1.4 μg/kg per minute for 14 days. TAT.proteins (10 mg/kg) were injected intraperitoneally once daily for 14 days. For results shown in FIGS. 10 to 12: Ang II was chronically infused subcutaneously by osmotic pumps (model 2000, Alzet) at a dose of 0.7 μg/kg per minute for 16 days. TAT.proteins (20 mg/kg) were injected intraperitoneally once daily for 8 days starting at day 8. Thoracic aortic banding (TAB) and pressure gradient measurements were performed as described^39.
After fixation in paraformaldehyde (4% in PBS, pH 7.4), a transverse midsection (3 μm thickness) was stained with Alexa Fluor® 488-conjugated wheat germ agglutinin for cross sectional measurements. Cardiomycoyte area was determined by planimetry employing ImageJ software. A total of 200 cells were counted in each group.

For `CN(C)c1nc2c(Br)c(Br)c(Br)c(Br)c2[nH]1` [DMAT, 2-dimethylamino-4,5,6,7-tetrabromo-1H-benzimidazol, reference compound], in assay [1], the “S83/T187 phosphorylation of p27 in cardiomyocytes” value was “abolished”. The “Ang II-triggered decrease in p27 protein levels / p27 destabilization” value in assay [2] is reported as “prevented p27 destabilization”.
On to `CC(C)C[C@H](NC(=O)[C@H](Cc1ccccc1)NC(=O)c1cnccn1)B(O)O` [PS-341], for which, in assay [2], the p27 degradation entry is given as “inhibit p27 degradation”.
Turning to `CC(=O)N[C@@H](CSC(=O)[C@]1([C@@H](O)C(C)C)NC(=O)[C@H](C)[C@@H]1O)C(=O)O` [lactacystin], the “Ang II-triggered decrease in p27 protein levels / p27 destabilization” value in assay [2] is listed as “sensitive to proteasome inhibition”.
As for “TAT-β-Gal: recombinant TAT-conjugated beta-galactosidase, control injections”, the Heart weight in the assay on WT mice (Ang II infusion 16 days (0.7 μg/kg per minute)) was determined as 159 ± 7.3 mg. In addition, in the assay with WT mice (Ang II infusion 16 days), the FS stood at 44 ± 1.6 %, the Heart weight/body weight is on record as 6.9 ± 0.2 mg/g, the IVSD turned out to be 1.4 ± 0.1 mm and the LVEDD is on record as 3.8 ± 0.1 mm. Besides, in the assay on WT mice (Ang II infusion 16 days), the LVEF came out at 78 ± 3.7 %, the LVESD amounted to 2.7 ± 0.2 mm and the PWD came to 1.4 ± 0.1 mm.
As for alpha-methylomuralide, the p27 degradation result in assay [2] is “inhibit p27 degradation”.
